According to patent US5858994A, “Carbohydrate conjugates as inhibitors of cell adhesion” (priority 1994, dated 1999):
pIC50: −log10 of the molar value.

Key:
[1] = hydrolysis in aqueous solution; format: physicochemical; settings: elimination of maleic acid, C45 H78 N4 O24 formed
P-Selectin = target: T1, P-Selectin (Homo sapiens, UniProt P16109); test: Inhibition of HL60 cell adhesion to soluble, recombinant P-selectin (P-selectin-IgG1 fusion protein); format: cell-based; settings: read-out: IC50 P-Selectin; inhibition of HL60 cell adhesion to soluble, recombinant adhesion molecules
T1 sequence (P16109 42-771): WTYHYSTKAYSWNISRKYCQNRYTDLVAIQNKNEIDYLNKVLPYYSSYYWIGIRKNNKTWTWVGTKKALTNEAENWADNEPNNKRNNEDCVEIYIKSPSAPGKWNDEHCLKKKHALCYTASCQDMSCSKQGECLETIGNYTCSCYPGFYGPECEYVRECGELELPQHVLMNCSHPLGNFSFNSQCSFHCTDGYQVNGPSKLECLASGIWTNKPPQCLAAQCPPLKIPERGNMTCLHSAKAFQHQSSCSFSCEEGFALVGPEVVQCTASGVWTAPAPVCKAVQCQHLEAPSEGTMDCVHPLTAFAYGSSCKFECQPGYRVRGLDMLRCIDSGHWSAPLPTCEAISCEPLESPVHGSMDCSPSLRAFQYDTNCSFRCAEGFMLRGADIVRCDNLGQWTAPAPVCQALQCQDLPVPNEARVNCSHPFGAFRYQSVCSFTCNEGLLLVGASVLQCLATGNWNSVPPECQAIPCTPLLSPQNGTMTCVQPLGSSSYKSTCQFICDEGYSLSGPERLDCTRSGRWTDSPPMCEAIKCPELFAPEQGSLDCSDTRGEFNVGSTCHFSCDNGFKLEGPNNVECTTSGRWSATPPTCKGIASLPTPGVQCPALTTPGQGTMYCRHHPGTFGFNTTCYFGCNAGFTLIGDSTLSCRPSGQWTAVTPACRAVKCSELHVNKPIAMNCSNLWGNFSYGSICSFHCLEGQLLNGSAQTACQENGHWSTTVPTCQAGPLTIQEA
Text: (§1) Carrying out these assays to measure the inhibitory activity of the compounds according to the invention on cell adhesion of promyelocytic cells by means of selecting is described in detail in European Published Application EP 0 601 417.
(§2) In order to test the efficacy of the carbohydrate conjugates on the interaction between the E- and P-selectins (former nomenclature ELAM-1 or GMP-140) with their ligands, an assay is used which in each case is specific only for one of these interactions. The ligands are supplied in their natural form as surface structures on promyelocytic HL60 cells. Since HL60 cells contain ligands and adhesion molecules of very different specificity, the desired specificity of the assay can only be produced by means of the binding component. The binding components used were genetically prepared soluble fusion proteins from the in each case extracytoplasmatic domains of E- or P-selectin and the constant region of a human immunoglobulin of the IgG1 subclass.
Preparation of P-selectin-IgG1
For preparation of the soluble P-selectin-IgG1 fusion protein, the genetic construct "ICD62Rg" published by Aruffo et al., 1991 is used. The further procedure corresponds to the preparation of L-selectin-IgG1 presented under A1.
(§3) 1. 96-well microtiter test plates (Nunc Maxisorb) are incubated at room temperature for 2 hours with 100 μl of a goat anti-human IgG antibody (Sigma) diluted (1+100) in 50 mM Tris pH 9.5. After removing the antibody solution washing is carried out once with PBS.
(§4) 2. 150 μl of the blocking buffer are left in the wells at room temperature for 1 hour. The composition of the blocking buffer is: 0.1% gelatin, 1% BSA, 5% calf serum, 0.2 mM PMSF, 0.02% sodium azide. After removing the blocking buffer washing is carried out once with PBS.
(§5) 3. 100 μl each of cell culture supernatant of appropriately transfected and expressing COS cells are pipetted into the wells. Incubation is carried out at room temperature for 2 hours. After removing the cell culture supernatant washing is carried out once with PBS.
(§6) 4. 20 μl of binding buffer are added to the wells. The binding buffer has the composition: 50 mM HEPES, pH 7.5; 100 mM NaCl; 1 mg/ml BSA; 2 mM MgCl2; 1 mM CaCl2; 3 mM MnCl2; 0.02% sodium azide; 0.2 mM PMSF. 5 μl of the test substance are pipetted into this, mixed by swirling the plate and incubated at room temperature for 10 minutes.
(§7) 5. 50 ml of an HL60 cell culture containing 200,000 cells/ml are centrifuged at 350 g for 4 minutes. The pellet is resuspended in 10 ml of RPMI 1640 and the cells are centrifuged again. For labeling the cells, 50 μg of BCECF-AM (Molecular Probes) are dissolved in 5 μl of anhydrous DMSO; 1.5 ml of RPMI 1640 are then added to the BCECF-AM/DMSO solution. The cells are resuspended using this solution and incubated at 37° C. for 30 minutes. After centrifugation at 350 g for 2 minutes, the labeled cell pellet is resuspended in 11 ml of binding buffer and the resuspended cells are distributed into the microtiter plate wells in 100 μl aliquots. The plate is allowed to stand at room temperature for 10 minutes in order to allow the cells to sediment on the bottom of the test plate. In the course of this, the cells have the opportunity to adhere to the coated plastic.
(§8) 6. To stop the test, the microtiter plate is immersed completely in the stop buffer (25 mM tris, pH 7.5; 125 mM NaCl; 0.1% BSA; 2 mM MgCl2; 1 mM CaCl2; 3 mM MnCl2; 0.02% sodium azide) at an angle of 45°. The stop buffer is removed from the wells by inversion and the procedure is repeated a further two times.
7. Measurement of the BCECF-AM-labeled cells firmly adhering to the wells is carried out in a cytofluorimeter (Millipore) at a sensitivity setting of 4, an excitation wavelength of 485/220 nm and an emission wavelength of 530/250 nm.

E-Selectin = target: T2, E-Selectin (Homo sapiens, UniProt P16581); test: Inhibition of HL60 cell adhesion to soluble, recombinant E-selectin (E-selectin-IgG1 fusion protein); format: cell-based; settings: read-out: IC50 E-Selectin; inhibition of HL60 cell adhesion to soluble, recombinant adhesion molecules
T2 sequence (P16581 22-556): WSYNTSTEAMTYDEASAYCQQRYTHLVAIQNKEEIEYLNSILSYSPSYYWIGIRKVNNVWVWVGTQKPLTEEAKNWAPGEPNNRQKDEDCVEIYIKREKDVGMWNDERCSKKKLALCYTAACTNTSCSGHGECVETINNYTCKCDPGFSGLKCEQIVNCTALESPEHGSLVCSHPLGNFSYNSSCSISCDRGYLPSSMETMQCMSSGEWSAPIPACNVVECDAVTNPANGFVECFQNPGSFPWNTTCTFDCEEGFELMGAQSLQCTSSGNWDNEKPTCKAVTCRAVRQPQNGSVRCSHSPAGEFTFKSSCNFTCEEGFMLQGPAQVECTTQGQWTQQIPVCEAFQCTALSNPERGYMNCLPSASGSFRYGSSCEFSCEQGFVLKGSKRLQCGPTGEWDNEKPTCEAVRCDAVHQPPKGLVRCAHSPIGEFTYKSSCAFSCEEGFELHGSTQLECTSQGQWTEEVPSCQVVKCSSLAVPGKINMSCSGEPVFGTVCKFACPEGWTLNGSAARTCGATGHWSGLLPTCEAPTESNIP
Text: as §1, §2
Preparation of L-selectin-IgG1
For the preparation of soluble L-selectin-IgG1 fusion protein, the genetic construct "ELAM-Rg" published by Walz et al., 1990 was used.
For expression, the plasmid DNA was transfected in COS-7 cells (ATCC) by means of DEAE-dextran (Molecular Biology Methods: see Ausubel, F. M., Brent, R., Kingston, R. E., Moore, D. D., Seidman, J. G., Struhl, K. and Smith, J. A. 1990. Current Protocols in Molecular Biology, John Wiley, New York). Seven days after transfection, the culture supernatant is recovered, freed from cells and cell fragments by centrifugation and transferred to 25 mM HEPES pH 7.0, 0.3 mM PMSF, 0.02% sodium azide and stored at +4° C.
as §3, §4, §5, §6, §7, §8

[2] = system: P-selectin-dependent lung injuries; settings: animal experiments; cited from earlier work
[3] = system: myocardial reperfusion injuries; settings: animal experiments; cited from earlier work
selectin receptors = test: binding to selectin receptors, statements in words

| Compound | pIC50 (P-Selectin) | pIC50 (E-Selectin) | further results |
| --- | --- | --- | --- |
| CC(=O)N[C@H]1[C@H](OCCCCCCNC(=O)C2CCC(CNC(=O)/C=C\C(=O)O)CC2)O[C@H](CO)[C@@H](O[C@@H]2O[C@H](CO)[C@H](O)[C@H](O[C@]3(C(=O)O)C[C@H](O)[C@@H](NC(C)=O)[C@H]([C@H](O)[C@H](O)CO)O3)[C@H]2O)[C@@H]1O[C@@H]1O[C@@H](C)[C@@H](O)[C@@H](O)[C@@H]1O (stereo partly shown) | – | – | hydrolysis in aqueous solution [1]: slowly hydrolyzes further in aqueous solution |
| CC(=O)N[C@@H]1[C@@H](O[C@@H]2O[C@@H](C)[C@@H](O)[C@@H](O)[C@@H]2O)[C@H](O[C@@H]2O[C@H](CO)[C@H](O)[C@H](O[C@]3(C(=O)O)C[C@H](O)[C@@H](NC(C)=O)[C@H]([C@H](O)[C@H](O)CO)O3)[C@H]2O)[C@@H](CO)O[C@H]1NC(=O)CCC(CCC(=O)N[C@@H]1O[C@H](CO)[C@@H](O[C@@H]2O[C@H](CO)[C@H](O)[C@H](O[C@]3(C(=O)O)C[C@H](O)[C@@H](NC(C)=O)[C@H]([C@H](O)[C@H](O)CO)O3)[C@H]2O)[C@H](O[C@@H]2O[C@@H](C)[C@@H](O)[C@@H](O)[C@@H]2O)[C@H]1NC(C)=O)(CCC(=O)N[C@@H]1O[C@H](CO)[C@@H](O[C@@H]2O[C@H](CO)[C@H](O)[C@H](O[C@]3(C(=O)O)C[C@H](O)[C@@H](NC(C)=O)[C@H]([C@H](O)[C@H](O)CO)O3)[C@H]2O)[C@H](O[C@@H]2O[C@@H](C)[C@@H](O)[C@@H](O)[C@@H]2O)[C@H]1NC(C)=O)[N+](=O)[O-] [II-1, tris{2-[N-(5-acetamido-3,5-dideoxy-D-glycero-D-galacto-2-nonulopyranosylate)-(2→3)-(β-D-galactopyranosyl)-(1→4)-[(α-L-fucopyranosyl)-(1→3)]-2-acetamido-1,2-dideoxy-β-D-glucopyranose]amidoethyl}nitro-methane] | < 3.10 | 3.42 | – |
| CC(=O)N[C@H]1[C@H](OCCCCCCNC(=O)CCC(CCC(=O)NCCCCCCO[C@@H]2O[C@H](CO)[C@@H](O[C@@H]3O[C@H](CO)[C@H](O)[C@H](O[C@]4(C(=O)O)C[C@H](O)[C@@H](NC(C)=O)[C@H]([C@H](O)[C@H](O)CO)O4)[C@H]3O)[C@H](O[C@@H]3O[C@@H](C)[C@@H](O)[C@@H](O)[C@@H]3O)[C@H]2NC(C)=O)(CCC(=O)NCCCCCCO[C@@H]2O[C@H](CO)[C@@H](O[C@@H]3O[C@H](CO)[C@H](O)[C@H](O[C@]4(C(=O)O)C[C@H](O)[C@@H](NC(C)=O)[C@H]([C@H](O)[C@H](O)CO)O4)[C@H]3O)[C@H](O[C@@H]3O[C@@H](C)[C@@H](O)[C@@H](O)[C@@H]3O)[C@H]2NC(C)=O)[N+](=O)[O-])O[C@H](CO)[C@@H](O[C@@H]2O[C@H](CO)[C@H](O)[C@H](O[C@]3(C(=O)O)C[C@H](O)[C@@H](NC(C)=O)[C@H]([C@H](O)[C@H](O)CO)O3)[C@H]2O)[C@@H]1O[C@@H]1O[C@@H](C)[C@@H](O)[C@@H](O)[C@@H]1O [II-2] | 3.85 | 3.89 | – |
| CC(=O)N[C@H]1[C@H](OCCCCCCNC(=O)CCCCCNC(=O)CCC(CCC(=O)NCCCCCC(=O)NCCCCCCO[C@@H]2O[C@H](CO)[C@@H](O[C@@H]3O[C@H](CO)[C@H](O)[C@H](O[C@]4(C(=O)O)C[C@H](O)[C@@H](NC(C)=O)[C@H]([C@H](O)[C@H](O)CO)O4)[C@H]3O)[C@H](O[C@@H]3O[C@@H](C)[C@@H](O)[C@@H](O)[C@@H]3O)[C@H]2NC(C)=O)(CCC(=O)NCCCCCC(=O)NCCCCCCO[C@@H]2O[C@H](CO)[C@@H](O[C@@H]3O[C@H](CO)[C@H](O)[C@H](O[C@]4(C(=O)O)C[C@H](O)[C@@H](NC(C)=O)[C@H]([C@H](O)[C@H](O)CO)O4)[C@H]3O)[C@H](O[C@@H]3O[C@@H](C)[C@@H](O)[C@@H](O)[C@@H]3O)[C@H]2NC(C)=O)[N+](=O)[O-])O[C@H](CO)[C@@H](O[C@@H]2O[C@H](CO)[C@H](O)[C@H](O[C@]3(C(=O)O)C[C@H](O)[C@@H](NC(C)=O)[C@H]([C@H](O)[C@H](O)CO)O3)[C@H]2O)[C@@H]1O[C@@H]1O[C@@H](C)[C@@H](O)[C@@H](O)[C@@H]1O [II-3] | < 3.00 | 3.40 | – |
| CC(=O)N[C@@H]1[C@@H](O[C@@H]2O[C@@H](C)[C@@H](O)[C@@H](O)[C@@H]2O)[C@H](O[C@@H]2O[C@H](CO)[C@H](O)[C@H](O[C@]3(C(=O)O)C[C@H](O)[C@@H](NC(C)=O)[C@H]([C@H](O)[C@H](O)CO)O3)[C@H]2O)[C@@H](CO)O[C@H]1O [SLeX] | – | – | use in P-selectin-dependent lung injuries [2]: successfully used; use in myocardial reperfusion injuries [3]: successfully used |
| Arg-Gly-Asp-Ala (RGDA; printed: Arg-Gly-Asp-Ala) | – | – | binding of the peptide on its own to selectins (selectin receptors): does not bind |
